From ChEMBL document CHEMBL4406844, “Single-molecule chemiluminescent photosensitizer for a self-activating and tumor-selective photodynamic therapy of cancer” (Eur J Med Chem, 2019)
The source made the active and inactive calls. The calls are words filed in the database; no cut-off is given here.

Key:
MCF7 [1] = test: Cytotoxicity against human MCF7 cells assessed as reduction in cell viability at 0.1 to 100 uM incubated for 24 hrs by MTT assay; format: functional, cell-based
PC-3 [2] = test: Cytotoxicity against human PC3 cells assessed as reduction in cell viability at 0.1 to 100 uM incubated for 24 hrs by MTT assay; format: functional, cell-based
[3] = Induction of singlet production in acetate buffer using chemiluminescent substrate by spectrofluorimetry; format: functional
[4] = Induction of singlet oxygen production in methanol assessed as ABDA florescence quenching by spectrofluorimetry; format: functional
[5] = Induction of singlet production in methanol in presence of potassium superoxide using chemiluminescent substrate incubated for 30 mins in N2-bubbling by spectrofluorimetry relative to control; format: functional
MCF-10A = test: Cytotoxicity against human MCF10A cells assessed as reduction in cell viability at 0.1 to 100 uM incubated for 24 hrs by MTT assay; format: cell-based
[6] = Induction of singlet oxygen production in methanol assessed as ABDA florescence quenching in presence of potassium superoxide by spectrofluorimetry; format: functional
MCF7 [7] = test: Cytotoxicity against human MCF7 cells assessed as reduction in cell viability at 0.1 uM incubated for 24 hrs by MTT assay; format: functional, cell-based
[8] = Induction of singlet production in methanol in presence of potassium superoxide using chemiluminescent substrate by spectrofluorimetry; format: functional
PC-3 [9] = test: Cytotoxicity against human PC3 cells assessed as reduction in cell viability at >75 uM incubated for 24 hrs by MTT assay relative to control; format: functional
[10] = Induction of singlet production in methanol in presence of potassium superoxide using chemiluminescent substrate incubated for 30 mins in liquid nitrogen temperature by spectrofluorimetry; format: functional
[11] = Induction of singlet oxygen production in acetate buffer assessed as ABDA florescence quenching by spectrofluorimetry; format: functional

SMILES | Activity (MCF7 [1]) | Activity (PC-3 [2]) | Activity [3] | Activity [5] | further results
CC/C(=C(\c1ccccc1)c1ccc(OCCN(C)C)cc1)c1ccccc1 | Active |  |  |  | 
CN(C)C(=N)NC(=N)N |  | Active |  |  | 
O=c1c(Cc2ccc(O)cc2)nc2c(Cc3ccccc3)[nH]c(-c3ccc(O)cc3)cn1-2 | inactive | Active | Active | inactive | Activity [4]: inactive
Cc1nc2c[nH]c(-c3ccc(Br)cc3)cn-2c1=O |  |  |  | Active | Activity (MCF-10A): Non-Toxic; Activity [6]: Active; Activity (MCF7 [7]): Active; Activity [8]: Active; Activity (PC-3 [9]): >50%; Activity [10]: Active
CC(=O)Nc1cnc(Br)cn1 |  |  | Active |  | Activity [11]: Active
